# From PubChem BioAssay (NCI)
#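 Grown in 96-well plates, cells were treated for 48 hours with each compound at five concentrations. Insufficient inhibition: endpoint recorded as highest concentration tested. GI50: concentration for 50% inhibition of growth. TGI is the concentration that stops growth completely.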
# Assays:
# Assay in all cases: growth of human tumour cells (NCI), 48 h
# T-47D breast = test system: T-47D breast
# UACC-62 melanoma = test system: UACC-62 melanoma
# HOP-62 NSCLC = test system: HOP-62 NSCLC
# NCI-H460 lung = test system: NCI-H460 lung
# MCF7 breast = test system: MCF7 breast
# OVCAR-8 ovarian = test system: OVCAR-8 ovarian
# SK-MEL-2 melanoma = test system: SK-MEL-2 melanoma
# HCT-116 colon = test system: HCT-116 colon
# HCT-15 colon = test system: HCT-15 colon
# HS 578T breast = test system: HS 578T breast
# MDA-MB-435 = test system: MDA-MB-435
# UO-31 renal = test system: UO-31 renal
# SR leukemia = test system: SR leukemia
# EKVX NSCLC = test system: EKVX NSCLC
# RPMI-8226 leukemia = test system: RPMI-8226 leukemia
# SF-539 CNS = test system: SF-539 CNS
# SF-295 CNS = test system: SF-295 CNS
# ACHN renal = test system: ACHN renal
# HOP-92 NSCLC = test system: HOP-92 NSCLC
# SK-MEL-5 melanoma = test system: SK-MEL-5 melanoma
# A549 NSCLC = test system: A549 NSCLC
# SN12C renal = test system: SN12C renal
# MDA-MB-231 breast = test system: MDA-MB-231 breast
# NCI-H23 lung = test system: NCI-H23 lung
# PC-3 prostate = test system: PC-3 prostate
# BT-549 breast = test system: BT-549 breast
# UACC-257 melanoma = test system: UACC-257 melanoma
# A498 renal = test system: A498 renal
# K-562 leukemia = test system: K-562 leukemia
# OVCAR-4 ovarian = test system: OVCAR-4 ovarian
# CAKI-1 renal = test system: CAKI-1 renal
# SK-OV-3 ovarian = test system: SK-OV-3 ovarian
# SW-620 colon = test system: SW-620 colon
# MOLT-4 leukemia = test system: MOLT-4 leukemia
# SK-MEL-28 melanoma = test system: SK-MEL-28 melanoma
# RXF 393 renal = test system: RXF 393 renal
# SF-268 CNS = test system: SF-268 CNS
# NCI/ADR-RES ovarian = test system: NCI/ADR-RES ovarian
# CCRF-CEM leukemia = test system: CCRF-CEM leukemia
# LOX IMVI melanoma = test system: LOX IMVI melanoma
# DU-145 prostate = test system: DU-145 prostate
# OVCAR-3 ovarian = test system: OVCAR-3 ovarian
# SNB-19 CNS = test system: SNB-19 CNS
# U251 CNS = test system: U251 CNS
# HT29 colon = test system: HT29 colon
# OVCAR-5 ovarian = test system: OVCAR-5 ovarian
# IGROV1 ovarian = test system: IGROV1 ovarian
# COLO 205 colon = test system: COLO 205 colon
# NCI-H226 lung = test system: NCI-H226 lung
# MALME-3M melanoma = test system: MALME-3M melanoma
# HL-60(TB) leukemia = test system: HL-60(TB) leukemia
# TK-10 renal = test system: TK-10 renal
# KM12 colon = test system: KM12 colon
# 786-0 renal = test system: 786-0 renal
# M14 melanoma = test system: M14 melanoma
# NCI-H522 lung = test system: NCI-H522 lung
# HCC-2998 colon = test system: HCC-2998 colon
structure (smiles),measurement,setting,value
O=C(O)[C@@H](Cc1ccc2ccccc2c1)NC(=O)n1c2ccccc2c2ccccc21,GI50,T-47D breast,11.6 µM
same,TGI,T-47D breast,> 100 µM
same,GI50,UACC-62 melanoma,0.435 µM
same,TGI,UACC-62 melanoma,16.1 µM
same,GI50,HOP-62 NSCLC,3.21 µM
same,TGI,HOP-62 NSCLC,15.3 µM
same,GI50,NCI-H460 lung,3.47 µM
same,TGI,NCI-H460 lung,33.5 µM
same,GI50,MCF7 breast,2.42 µM
same,TGI,MCF7 breast,> 100 µM
same,GI50,OVCAR-8 ovarian,4.16 µM
same,TGI,OVCAR-8 ovarian,> 100 µM
same,GI50,SK-MEL-2 melanoma,4.19 µM
same,TGI,SK-MEL-2 melanoma,43.3 µM
same,GI50,HCT-116 colon,2.32 µM
same,TGI,HCT-116 colon,11.8 µM
same,GI50,HCT-15 colon,3.29 µM
same,TGI,HCT-15 colon,28.6 µM
same,GI50,HS 578T breast,2.24 µM
same,TGI,HS 578T breast,59.6 µM
same,GI50,MDA-MB-435,1.09 µM
same,TGI,MDA-MB-435,3.39 µM
same,GI50,UO-31 renal,5.18 µM
same,TGI,UO-31 renal,45.5 µM
same,GI50,SR leukemia,4.12 µM
same,TGI,SR leukemia,> 100 µM
same,GI50,EKVX NSCLC,5.56 µM
same,TGI,EKVX NSCLC,62.2 µM
same,GI50,RPMI-8226 leukemia,3.83 µM
same,TGI,RPMI-8226 leukemia,31.7 µM
same,GI50,SF-539 CNS,1.99 µM
same,TGI,SF-539 CNS,6.61 µM
same,GI50,SF-295 CNS,2.29 µM
same,TGI,SF-295 CNS,8.97 µM
same,GI50,ACHN renal,4.83 µM
same,TGI,ACHN renal,93.6 µM
same,GI50,HOP-92 NSCLC,1.33 µM
same,TGI,HOP-92 NSCLC,7.74 µM
same,GI50,SK-MEL-5 melanoma,2.55 µM
same,TGI,SK-MEL-5 melanoma,7.27 µM
same,GI50,A549 NSCLC,4.36 µM
same,TGI,A549 NSCLC,> 100 µM
same,GI50,SN12C renal,3.94 µM
same,TGI,SN12C renal,17.7 µM
same,GI50,MDA-MB-231 breast,3.65 µM
same,TGI,MDA-MB-231 breast,17.3 µM
same,GI50,NCI-H23 lung,3.72 µM
same,TGI,NCI-H23 lung,26.7 µM
same,GI50,PC-3 prostate,1.87 µM
same,TGI,PC-3 prostate,15.8 µM
same,GI50,BT-549 breast,2.85 µM
same,TGI,BT-549 breast,14.2 µM
same,GI50,UACC-257 melanoma,11.9 µM
same,TGI,UACC-257 melanoma,> 100 µM
same,GI50,A498 renal,2.23 µM
same,TGI,A498 renal,9.31 µM
same,GI50,K-562 leukemia,1.41 µM
same,TGI,K-562 leukemia,> 100 µM
same,GI50,OVCAR-4 ovarian,6.8 µM
same,TGI,OVCAR-4 ovarian,> 100 µM
same,GI50,CAKI-1 renal,3.54 µM
same,TGI,CAKI-1 renal,46.2 µM
same,GI50,SK-OV-3 ovarian,5.64 µM
same,TGI,SK-OV-3 ovarian,44.5 µM
same,GI50,SW-620 colon,4.04 µM
same,TGI,SW-620 colon,> 100 µM
same,GI50,MOLT-4 leukemia,4.12 µM
same,TGI,MOLT-4 leukemia,20.7 µM
same,GI50,SK-MEL-28 melanoma,11.4 µM
same,TGI,SK-MEL-28 melanoma,46.8 µM
same,GI50,RXF 393 renal,1.57 µM
same,TGI,RXF 393 renal,7.15 µM
same,GI50,SF-268 CNS,3.77 µM
same,TGI,SF-268 CNS,36.2 µM
same,GI50,NCI/ADR-RES ovarian,2.83 µM
same,TGI,NCI/ADR-RES ovarian,9.65 µM
same,GI50,CCRF-CEM leukemia,0.77 µM
same,TGI,CCRF-CEM leukemia,18 µM
same,GI50,LOX IMVI melanoma,3.63 µM
same,TGI,LOX IMVI melanoma,20 µM
same,GI50,DU-145 prostate,3.4 µM
same,TGI,DU-145 prostate,> 100 µM
same,GI50,OVCAR-3 ovarian,1.81 µM
same,TGI,OVCAR-3 ovarian,6.78 µM
same,GI50,SNB-19 CNS,3.57 µM
same,TGI,SNB-19 CNS,17 µM
same,GI50,U251 CNS,2.89 µM
same,TGI,U251 CNS,21.2 µM
same,GI50,HT29 colon,3.08 µM
same,TGI,HT29 colon,8.33 µM
same,GI50,OVCAR-5 ovarian,5.05 µM
same,TGI,OVCAR-5 ovarian,> 100 µM
same,GI50,IGROV1 ovarian,4.06 µM
same,TGI,IGROV1 ovarian,80.7 µM
same,GI50,COLO 205 colon,2.55 µM
same,TGI,COLO 205 colon,5.29 µM
same,GI50,NCI-H226 lung,2.1 µM
same,TGI,NCI-H226 lung,9.32 µM
same,GI50,MALME-3M melanoma,4.25 µM
same,TGI,MALME-3M melanoma,31.5 µM
same,GI50,HL-60(TB) leukemia,3.3 µM
same,TGI,HL-60(TB) leukemia,18.3 µM
same,GI50,TK-10 renal,14.9 µM
same,TGI,TK-10 renal,> 100 µM
same,GI50,KM12 colon,2.18 µM
same,TGI,KM12 colon,14.3 µM
same,GI50,786-0 renal,0.708 µM
same,TGI,786-0 renal,12.2 µM
same,GI50,M14 melanoma,3.25 µM
same,TGI,M14 melanoma,19.5 µM
same,GI50,NCI-H522 lung,0.356 µM
same,TGI,NCI-H522 lung,2.21 µM
same,GI50,HCC-2998 colon,3.91 µM
same,TGI,HCC-2998 colon,19.1 µM
